According to patent US20130302442A1, “METHODS OF USING (4S,4AS,5AR,12AS)-4-DIMETHYLAMINO-3,10,12,12A-TETRAHYDROXY-7-[(METHOXY(METHYL)AMINO)-METHYL]-1,11-DIOXO-1,4,4A,5,5A,6,11,12A-OCTAHYDRO-NAPHTHACENE-2-CARBOXYLIC ACID AMIDE” (priority 2012, published 2013):
Converted amounts (≈) assume the structure as drawn. Read-outs that look alike come from different tables or passages of the source.

Legend:
[1] = tested on: Streptococcus constellatus; assay: In vitro MIC testing against anaerobic bacteria; format: cell-based
[2] = tested on: Bacteroides fragilis; assay: In vitro MIC testing against anaerobic bacteria; format: cell-based
[3] = tested on: Fusobacterium necrophorum; assay: In vitro MIC testing against anaerobic bacteria; format: cell-based; details: Fusobacterium necrophorum, ATCC25286
[4] = tested on: Prevotella spp.; assay: In vitro MIC testing against anaerobic bacteria; format: cell-based
[5] = tested on: P. acnes; assay: In vitro MIC testing, antibacterial spectrum of activity; format: cell-based, Propionibacterium acnes; details: for MIC50: read-out: MIC50; for MIC90: read-out: MIC90
[6] = tested on: S. aureus; assay: as above; format: cell-based, Staphylococcus aureus; details: for MIC50 / MIC90 / MIC: Staphylococcus aureus; for MIC50: read-out: MIC50; for MIC90: read-out: MIC90
[7] = tested on: S. pneumoniae; assay: as above; format: cell-based, Streptococcus pneumoniae
[8] = tested on: S. haemolyticus; assay: as above; format: cell-based; details: S. haemolyticus (33 isolates)
[9] = tested on: E. cloacae; assay: as above; format: cell-based; details: Enterobacter cloacae; E. cloacae (30 isolates)
[10] = tested on: P. mirabilis; assay: as above; format: cell-based; details: P. mirabilis (30 isolates)
[11] = tested on: Salmonella Spp.; assay: as above; format: cell-based; details: Salmonella
[12] = tested on: Chlamydia trachomatis; assay: In vitro susceptibility testing of Chlamydia trachomatis in HEp-2 cells (first study); format: cell-based; details: C. trachomatis strains
[13] = tested on: Helicobacter pylori; assay: In vitro MIC against multiple isolates of H. pylori; format: cell-based; details: for MIC: read-out: MIC
[14] = tested on: methicillin-sensitive S. aureus (MSSA); assay: In vitro MIC against isolates of MSSA; format: cell-based, Staphylococcus aureus
[15] = tested on: hospital-associated methicillin-resistant S. aureus (MRSA-HA); assay: In vitro MIC against isolates of MRSA-HA; format: cell-based, Staphylococcus aureus; details: MRSA-HA (33 isolates)
[16] = tested on: community-acquired methicillin-resistant S. aureus (MRSA-CA); assay: In vitro MIC against isolates of MRSA-CA; format: cell-based, Staphylococcus aureus
[17] = tested on: Chlamydia trachomatis; assay: Susceptibility testing (MIC, MBC) of 10 isolates of C. trachomatis in HEp-2 cells; format: cell-based
[18] = tested on: Chlamydia pneumoniae; assay: Susceptibility testing (MIC, MBC) of 10 isolates of C. pneumoniae in HEp-2 cells; format: cell-based
[19] = tested on: bacterial protein synthesis (synthesis of reporter protein); assay: In vitro cell-free bacterial transcription and translation assay; format: biochemical; details: cell-free bacterial transcription and translation assay (Promega); read-out: IC50, inhibition of the synthesis of reporter protein
[20] = tested on: Staphylococcus aureus; assay: Inhibition of macromolecular synthesis in Staphylococcus aureus (whole-cell assay); format: cell-based; details: S. aureus, at 8-fold the MIC
[21] = Cutibacterium acnes, P. acnes [clinical isolates] (55 isolates)
[22] = Cutibacterium acnes, P. acnes [tetS] (13 isolates)
[23] = MRSA, S. aureus [MRSA] (31 isolates)
[24] = MSSA, S. aureus [MSSA] (32 isolates)
[25] = Staphylococcus aureus, MRSA-CA (33 isolates)

CON(C)Cc1ccc(O)c2c1C[C@H]1C[C@H]3[C@H](N(C)C)C(O)=C(C(N)=O)C(=O)[C@@]3(O)C(O)=C1C2=O [The Active, (4S,4aS,5aR,12aS)-4-dimethylamino-3,10,12,12a-tetrahydroxy-7-[(methoxy(methyl)amino)-methyl]-1,11-dioxo-1,4,4a,5,5a,6,11,12a-octahydro-naphthacene-2-carboxylic acid amide]
MIC ([1]; ATCC27823, Streptococcus constellatus 1202, ATCC 27823, read-out: MIC): 32 µg/mL (≈ 65.6 µM) | MIC ([1]; Streptococcus constellatus, S. constellatus, summary of Table 1, read-out: MIC, high MIC values): > 16 µg/mL | MIC ([2]; Bacteroides fragilis 3374): 0.12 µg/mL (≈ 0.246 µM) | MIC ([2]; Bacteroides fragilis 3479): 16 µg/mL (≈ 32.8 µM) | MIC [3]: 0.25 µg/mL (≈ 0.513 µM) | MIC ([4]; Prevotella spp. 3564): 4 µg/mL (≈ 8.2 µM) | MIC ([4]; Prevotella spp. 3568): 2 µg/mL (≈ 4.1 µM) | MIC ([5]; Cutibacterium acnes): > 8 µg/mL | MIC50 [5, 21]: 0.5 µg/mL (≈ 1.03 µM) | MIC90 [5, 21]: 4 µg/mL (≈ 8.2 µM) | MIC50 [5, 22]: 0.5 µg/mL (≈ 1.03 µM) | MIC90 [5, 22]: 2 µg/mL (≈ 4.1 µM) | MIC Range ([5]; P. acnes [clinical isolates] (55 isolates)): 0.5 to 16 µg/mL | MIC Range ([5]; P. acnes [tetS] (2 isolates)): 0.25 to 1 µg/mL | MIC Range ([5]; P. acnes [tetS] (13 isolates)): 0.25 to 4 µg/mL | MIC Range ([6]; S. aureus [MRSA] (31 isolates)): 0.25 to 4 µg/mL | MIC Range ([6]; S. aureus [MSSA] (32 isolates)): 0.25 to 16 µg/mL | MIC Range ([6]; S. aureus [tetR] (10 isolates)): 0.125 to 32 µg/mL | MIC Range ([6]; S. aureus [tetS] (20 isolates)): ≦0.06-0.25 μg/mL | MIC50 [6, 23]: 0.25 µg/mL (≈ 0.513 µM) | MIC90 [6, 23]: 0.5 µg/mL (≈ 1.03 µM) | MIC50 [6, 24]: 0.5 µg/mL (≈ 1.03 µM) | MIC90 [6, 24]: 0.5 µg/mL (≈ 1.03 µM) | MIC50 ([6]; S. aureus [tetR] (10 isolates)): 4 µg/mL (≈ 8.2 µM) | MIC90 ([6]; S. aureus [tetR] (10 isolates)): 16 µg/mL (≈ 32.8 µM) | MIC50 ([6]; S. aureus [tetS] (20 isolates)): 0.125 µg/mL (≈ 0.256 µM) | MIC90 ([6]; S. aureus [tetS] (20 isolates)): 0.25 µg/mL (≈ 0.513 µM) | MIC ([6]; S. aureus strain PBS # 1309, tetK): 0.5 µg/mL (≈ 1.03 µM) | MIC ([6]; S. aureus strain PBS # 1310, tetM): 8 µg/mL (≈ 16.4 µM) | MIC ([6]; S. aureus strain PBS # 1739, tet38): 4 µg/mL (≈ 8.2 µM) | MIC Range ([7]; S. pneumoniae [PSSP] (32 isolates)): ≦0.03-32 μg/mL | MIC Range ([7]; S. pneumoniae [tetR] (5 isolates)): 4 to 32 µg/mL | MIC Range ([7]; S. pneumoniae [tetS] (5 isolates)): ≦0.06-0.125 μg/mL | MIC50 ([7]; Streptococcus pneumoniae, S. pneumoniae [PSSP] (32 isolates), read-out: MIC50): 0.12 µg/mL (≈ 0.246 µM) | MIC90 ([7]; Streptococcus pneumoniae, S. pneumoniae [PSSP] (32 isolates), read-out: MIC90): 0.25 µg/mL (≈ 0.513 µM) | MIC ([7]; Streptococcus pneumoniae, S. pneumoniae strain PBS # 511, tetM): 4 µg/mL (≈ 8.2 µM) | MIC Range [8]: 0.12 to 2 µg/mL | MIC50 ([8]; Staphylococcus haemolyticus, read-out: MIC50): 0.12 µg/mL (≈ 0.246 µM) | MIC90 ([8]; Staphylococcus haemolyticus, read-out: MIC90): 2 µg/mL (≈ 4.1 µM) | MIC50 [9]: 32 µg/mL (≈ 65.6 µM) | MIC90 [9]: > 64 µg/mL | MIC Range [10]: >64 µg/mL | MIC50 ([10]; Proteus mirabilis): > 64 µg/mL | MIC90 ([10]; Proteus mirabilis): > 64 µg/mL | MIC90 [11]: > 64 µg/mL | MIC Range [12]: 0.06 to 0.125 µg/mL | MIC90 ([12]; Chlamydia trachomatis, read-out: MIC at which 90% of the strains were inhibited (MIC90)): 0.125 µg/mL (≈ 0.256 µM) | MBC ([12]; Chlamydia trachomatis, read-out: minimum bactericidal concentration at which 90% of the strains were inhibited (MBC90)): 0.125 µg/mL (≈ 0.256 µM) | MIC Range ([13]; H. pylori clinical isolate summary): 1 to 8 µg/mL | concentration inhibiting 12 out of 13 strains ([13]; H. pylori, 12 out of 13 strains): 1 to 2 µg/mL | concentration inhibiting all test strains ([13]; H. pylori, all 13 test strains): ≤ 8 µg/mL | MIC ([13]; Helicobacter pylori, ATCC43504, H. pylori reference strain, culture No. 3718, ATCC 43504): 2 µg/mL (≈ 4.1 µM) | MIC ([13]; Helicobacter pylori, ATCC700824, H. pylori reference strain, culture No. 3719, ATCC 700824): 2 µg/mL (≈ 4.1 µM) | MIC ([13]; Helicobacter pylori, ATCCBAA945, H. pylori reference strain, culture No. 3720, ATCC BAA-945): 1 µg/mL (≈ 2.05 µM) | MIC ([13]; Helicobacter pylori, H. pylori clinical isolate, culture No. 4368): 2 µg/mL (≈ 4.1 µM) | MIC ([13]; Helicobacter pylori, H. pylori clinical isolate, culture No. 4369): 8 µg/mL (≈ 16.4 µM) | MIC ([13]; Helicobacter pylori, H. pylori clinical isolate, culture No. 4370): 2 µg/mL (≈ 4.1 µM) | MIC ([13]; Helicobacter pylori, H. pylori clinical isolate, culture No. 4371): 2 µg/mL (≈ 4.1 µM) | MIC ([13]; Helicobacter pylori, H. pylori clinical isolate, culture No. 4372): 1 µg/mL (≈ 2.05 µM) | MIC ([13]; Helicobacter pylori, H. pylori clinical isolate, culture No. 4374): 2 µg/mL (≈ 4.1 µM) | MIC ([13]; Helicobacter pylori, H. pylori clinical isolate, culture No. 4375): 2 µg/mL (≈ 4.1 µM) | MIC ([13]; Helicobacter pylori, H. pylori clinical isolate, culture No. 4377): 1 µg/mL (≈ 2.05 µM) | MIC ([13]; Helicobacter pylori, H. pylori clinical isolate, culture No. 4503): 2 µg/mL (≈ 4.1 µM) | MIC ([13]; Helicobacter pylori, H. pylori clinical isolate, culture No. 4504): 1 µg/mL (≈ 2.05 µM) | MIC90 ([13]; Helicobacter pylori, H. pylori, MIC for 90% of clinical test isolates, read-out: MIC90): 2 µg/mL (≈ 4.1 µM) | MIC50 ([13]; Helicobacter pylori, read-out: MIC50): 2 µg/mL (≈ 4.1 µM) | MIC90 ([14]; MSSA (34 isolates)): 1.0 µg/mL (≈ 2.05 µM) | MIC Range ([14]; MSSA (34 isolates)): 0.25 to 16 µg/mL | MIC50 ([14]; Staphylococcus aureus, MSSA (34 isolates)): 0.25 µg/mL (≈ 0.513 µM) | MIC90 ([14]; Staphylococcus aureus, MSSA (34 isolates), read-out: MIC90): 1 µg/mL (≈ 2.05 µM) | MIC ([14]; Staphylococcus aureus, single strain of doxycycline-resistant MSSA): 16 µg/mL (≈ 32.8 µM) | MIC Range [15]: 0.25 to 0.5 µg/mL | MIC50 ([15]; Staphylococcus aureus): 0.25 µg/mL (≈ 0.513 µM) | MIC90 ([15]; Staphylococcus aureus): 0.5 µg/mL (≈ 1.03 µM) | MIC Range ([16]; MRSA-CA (33 isolates)): 0.12 to 8 µg/mL | MIC50 [16, 25]: 0.25 µg/mL (≈ 0.513 µM) | MIC90 [16, 25]: 0.5 µg/mL (≈ 1.03 µM) | MIC ([16]; Staphylococcus aureus, single strain of doxycycline-resistant MRSA-CA): 8 µg/mL (≈ 16.4 µM) | MIC 90% ([17]; 72 h): 0.125 µg/mL (≈ 0.256 µM) | MIC Range ([17]; 72 h): 0.03 to 0.125 µg/mL | MIC50 ([17]; Chlamydia trachomatis, 72 h): 0.06 µg/mL (≈ 0.123 µM) | MIC90 ([17]; Chlamydia trachomatis, 72 h): 0.125 µg/mL (≈ 0.256 µM) | MBC ([17]; Chlamydia trachomatis, after passage, read-out: MBC 90%): 0.125 µg/mL (≈ 0.256 µM) | MBC 90% ([17]; after passage): 0.125 µg/mL (≈ 0.256 µM) | MBC Range ([17]; after passage): 0.03 to 0.125 µg/mL | MIC 90% ([18]; 72 h): 0.5 µg/mL (≈ 1.03 µM) | MIC Range ([18]; 72 h): 0.125 to 0.5 µg/mL | MIC50 ([18]; Chlamydia pneumoniae, 72 h): 0.25 µg/mL (≈ 0.513 µM) | MIC90 ([18]; Chlamydia pneumoniae, 72 h): 0.5 µg/mL (≈ 1.03 µM) | MBC ([18]; Chlamydia pneumoniae, after passage, read-out: MBC 90%): 0.25 µg/mL (≈ 0.513 µM) | MBC 90% ([18]; after passage): 0.25 µg/mL (≈ 0.513 µM) | MBC Range ([18]; after passage): 0.125 to 0.5 µg/mL | IC50 [19]: 8.3 ± 0.18 µM | inhibition of the synthesis of cell wall, DNA, RNA and lipid components [20]: less than 20% | maximum inhibition of incorporation of [3H]-leucine into proteins [20]: 80%
